Source: patent publication US8324263B2, “Microbiocidally active carboxamides” (Syngenta Crop Protection, LLC, priority 2007, dated 2012)

Legend:
[1] = tested on: Botrytis cinerea; assay: Action against Botrytis cinerea - fungal growth assay; format: cell-based; conditions: 0.002% active ingredient, PDB broth, 24° C., photometric after 3-4 days
Method: Conidia of the fungus from cryogenic storage are directly mixed into nutrient broth (PDB potato dextrose broth). After placing a (DMSO) solution of the test compounds (0.002% active ingredient) into a microtiter plate (96-well format) the nutrient broth containing the fungal spores is added.

Cc1cc(Br)cc(C)c1OCC(C)NC(=O)c1cn(C)nc1C(F)F (centres unmarked) [Compound 1.168, 3-difluoromethyl-1-methyl-1H-pyrazole-4-carboxylic acid [2-(4-bromo-2,6-dimethyl-phenoxy)-1-methyl-ethyl]-amide]
melting point: 119 to 121 °C

CC(COc1ncc(C(F)(F)F)cc1Cl)NC(=O)c1cn(C)nc1C(F)F (centres unmarked) [Compound 1.239, 3-difluoromethyl-1-methyl-1H-pyrazole-4-carboxylic acid [2-(3-chloro-5-trifluoromethyl-pyridin-2-yloxy)-1-methyl-ethyl]-amide]
inhibition at 0.002 % strength ([1]; Botrytis cinerea): 50%
melting point: 115 to 118 °C

Cn1cc(C(=O)NC2(COc3ccc(Cl)cc3)CC2)c(C(F)F)n1 [Compound 1.221]
fungal growth inhibition [1]: 50%

CC(COc1c(Br)cc(Br)cc1Br)NC(=O)c1cn(C)nc1C(F)F (centres unmarked) [Compound 1.193, 3-difluoromethyl-1-methyl-1H-pyrazole-4-carboxylic acid [1-methyl-2-(2,4,6-tribromo-phenoxy)-ethyl]-amide]
melting point: 122 to 124 °C
